Experimental data published in patent US10117944B2, “Targeted therapeutics” (Madrigal Pharmaceuticals, Inc., priority 2014, dated 2018).
Where “and” joins values, the source holds several entries; their conditions need not be identical. Equal values may be shown once. Read-outs that look alike come from different tables or passages of the source. One block for each molecule: values may come before it.

Assays:
[1] = Tissue distribution of ganetespib in female CD-1 nu/nu mice bearing RERF human NSCLC xenografts; type: in vivo; conditions: IV 50 mg/kg; for concentration at 5 min / concentration at 24 h / concentration at 6 h: female, CD-1 nu/nu, mouse
Description: To confirm the distribution of ganetespib in blood, livers, kidneys, brains, hearts, lungs and tumors after IV administration of ganetespib to female CD-1 nu/nu mice bearing RERF human NSCLC xenografts, and to examine metabolic profiles of ganetespib in plasma, red blood cells, and above tissues.
Test Articles: ganetespib
Animals: female CD-1 nu/nu mice bearing RERF human NSCLC xenografts (N=3/group)
Formulation: 10% DMSO, 18% Cremophor RH40, 3.6% dextrose solution (DRD)
Bleeding time points: 5 min, 6, 24 hr
Collected tissues: blood (plasma and red blood cells (RBC)), liver, kidneys, brain, heart, lung, tumor
Protein precipitation: 50 μL of 10 times diluted plasma or RBC+150 μL ACN (10 mM NH4OAc), vortexed and centrifuged at 10000 rpm for 8 min; 150 μL supernatant+150 μL water (10 mM NH4OAc)
Protein precipitation: 100 μL homogenized tissue (1:3 tissue: PBS buffer)+100 μL ACN (10 mM NH4OAc), vortexed and centrifuged at 10000 rpm for 8 min

[2] = Stability of SDC-TRAPs in mouse plasma; type: in vitro ADME; conditions: 37° C.
Method: SDC-TRAPs were incubated in mouse plasma for 1 h at 37° C. and assayed for integrity at 0, 0.25, 0.5 and 1 h to assess the stability of the SDC-TRAP, e.g., as compared to the effector and targeting compounds. Compound stability was determined using […].

[3] = tested on: HER2; test: HER2 degradation assay with BT-474 cell line; type: cell-based, human; conditions: BT-474 cells, overnight incubation

SMILES: CC(C)c1cc(-c2n[nH]c(=O)n2-c2ccc3c(ccn3C)c2)c(O)cc1O [ganetespib]
Mean concentration in plasma relative to that in RBC ([1]; 5 min): about 10 times | Concentration in tumor ([1]; 5 min, tumor): 2.35 µM | Concentration in plasma ([1]; 24 hr, plasma): <LLOQ | concentration at 5 min ([1]; red blood cells, 5 min, RBC, read-out: Concentration in RBC): 6000 ng/mL and 16.5 µM | concentration at 24 h ([1]; red blood cells, 24 hr, RBC, read-out: Concentration in RBC): 3 ng/mL and 7 nM | concentration at 5 min ([1]; 5 min, brain, read-out: Concentration in brain): 530 nM and 190 ng/g | concentration at 5 min ([1]; 5 min, heart, read-out: Concentration in heart): 36.2 µM and 13200 ng/g | concentration at 5 min ([1]; 5 min, kidneys, read-out: Concentration in kidneys): 57.8 µM and 21100 ng/g | concentration at 5 min ([1]; 5 min, liver, read-out: Concentration in liver): 46.3 µM and 16900 ng/g | concentration at 5 min ([1]; 5 min, lung, read-out: Concentration in lung): 9240 ng/g and 25.4 µM | concentration at 5 min ([1]; 5 min, plasma, read-out: Concentration in plasma): 160 µM and 58400 ng/mL | concentration at 5 min ([1]; 5 min, tumor, read-out: Concentration in tumor): 860 ng/g and 2.35 µM | concentration at 6 h ([1]; brain, read-out: Concentration in brain): 70 ng/g and 180 nM | concentration at 6 h ([1]; heart, read-out: Concentration in heart): 50 ng/g and 130 nM | concentration at 6 h ([1]; kidneys, read-out: Concentration in kidneys): 60 ng/g and 150 nM | concentration at 6 h ([1]; liver, read-out: Concentration in liver): 140 ng/g and 390 nM | concentration at 6 h ([1]; lung, read-out: Concentration in lung): 50 ng/g and 140 nM | concentration at 6 h ([1]; plasma, read-out: Concentration in plasma): 120 nM and 40 ng/mL | concentration at 6 h ([1]; tumor, read-out: Concentration in tumor): 290 ng/g and 800 nM | concentration at 24 h ([1]; 24 hr, brain, read-out: Concentration in brain): 40 ng/g and 120 nM | concentration at 24 h ([1]; 24 hr, heart, read-out: Concentration in heart): 0 ng/g and 0 nM | concentration at 24 h ([1]; 24 hr, kidneys, read-out: Concentration in kidneys): 10 ng/g and 20 nM | concentration at 24 h ([1]; 24 hr, liver, read-out: Concentration in liver): 5 ng/g and 10 nM | concentration at 24 h ([1]; 24 hr, lung, read-out: Concentration in lung): 0 ng/g and 5 nM | concentration at 24 h ([1]; 24 hr, plasma, read-out: Plasma concentration (below the lower limit of quantitation)): < 0.0025 µM | concentration at 24 h ([1]; 24 hr, tumor, read-out: Concentration in tumor): 850 nM and 310 ng/g

SMILES: CCNC(=O)c1nnc(-c2cc(C(C)C)c(O)cc2O)n1-c1ccc(CN2CCC(C(=O)N3CCC4(CC3)OB([C@H](CC(C)C)NC(=O)[C@H](Cc3ccccc3)NC(=O)c3cnccn3)OC4(C)C)CC2)cc1 [SDC-TRAP-0252, N—((S)-1-(((R)-1-(8-(1-(4-(3-(2,4-dihydroxy-5-isopropylphenyl)-5-(ethylcarbamoyl)-4H-1,2,4-triazol-4-yl)benzyl)piperidine-4-carbonyl)-4,4-dimethyl-1,3-dioxa-8-aza-2-boraspiro[4.5]decan-2-yl)-3-methylbutyl)amino)-1-oxo-3-phenylpropan-2-yl)pyrazine-2-carboxamide]
% Remaining (1 h) [2]: 34%

SMILES: CC(C)C[C@H](NC(=O)[C@H](Cc1ccccc1)NC(=O)c1cnccn1)B1O[C@H]2C[C@H]3C[C@H](C3(C)C)[C@@]2(CC(=O)N2CCC(CCn3ccc4cc(-n5c(O)nnc5-c5cc(C(C)C)c(O)cc5O)ccc43)CC2)O1 [SDC-TRAP-0245, N—((S)-1-(((R)-1-((3aR,4R,6R,7aS)-3a-(2-(4-(2-(5-(3-(2,4-dihydroxy-5-isopropylphenyl)-5-hydroxy-4H-1,2,4-triazol-4-yl)-1H-indol-1-yl)ethyl)piperidin-1-yl)-2-oxoethyl)-5,5-dimethylhexahydro-4,6-methanobenzo[d][1,3,2]dioxaborol-2-yl)-3-methylbutyl)amino)-1-oxo-3-phenylpropan-2-yl)pyrazine-2-carboxamide]
% Remaining (1 h) [2]: 44.2%

SMILES: CC(C)C[C@H](NC(=O)[C@H](Cc1ccccc1)NC(=O)c1cnccn1)B1OC(C)(C)C(C)(c2ccc(C(=O)N3CCN(Cc4ccc(-n5c(O)nnc5-c5cc(C(C)C)c(O)cc5O)cc4)CC3)cc2)O1 (stereo partly drawn) [SDC-TRAP-0236, N-((2S)-1-(((1R)-1-(4-(4-(4-(4-(3-(2,4-dihydroxy-5-isopropylphenyl)-5-hydroxy-4H-1,2,4-triazol-4-yl)benzyl)piperazine-1-carbonyl)phenyl)-4,5,5-trimethyl-1,3,2-dioxaborolan-2-yl)-3-methylbutyl)amino)-1-oxo-3-phenylpropan-2-yl)pyrazine-2-carboxamide]
IC50 [3]: 0.71 µM | % Remaining (1 h) [2]: 25.5%

SMILES: CC(C)C[C@H](NC(=O)[C@H](Cc1ccccc1)NC(=O)c1cnccn1)B1OC(C)(C)C(C)(c2ccc(C(=O)N3CCc4ccc(-n5c(O)nnc5-c5cc(C(C)C)c(O)cc5O)cc4C3)cc2)O1 (stereo partly drawn) [SDC-TRAP-0239, N-((2S)-1-(((1R)-1-(4-(4-(7-(3-(2,4-dihydroxy-5-isopropylphenyl)-5-hydroxy-4H-1,2,4-triazol-4-yl)-1,2,3,4-tetrahydroisoquinoline-2-carbonyl)phenyl)-4,5,5-trimethyl-1,3,2-dioxaborolan-2-yl)-3-methylbutyl)amino)-1-oxo-3-phenylpropan-2-yl)pyrazine-2-carboxamide]
IC50 [3]: > 5 µM | % Remaining (1 h) [2]: 35.8%

SMILES: CCNC(=O)c1nnc(-c2cc(C(C)C)c(O)cc2O)n1-c1ccc(C(=O)N2CCC3(CC2)OB([C@H](CC(C)C)NC(=O)[C@H](Cc2ccccc2)NC(=O)c2cnccn2)OC3(C)C)cc1 [SDC-TRAP-0251, N—((S)-1-(((R)-1-(8-(4-(3-(2,4-dihydroxy-5-isopropylphenyl)-5-(ethylcarbamoyl)-4H-1,2,4-triazol-4-yl)benzoyl)-4,4-dimethyl-1,3-dioxa-8-aza-2-boraspiro[4.5]decan-2-yl)-3-methylbutyl)amino)-1-oxo-3-phenylpropan-2-yl)pyrazine-2-carboxamide]
IC50 [3]: > 5 µM | % Remaining (1 h) [2]: 13.4%

The remaining lines, values ahead:

IC50 [3]: > 5 µM | % Remaining (1 h) [2]: 24.0%
SMILES: CC(C)C[C@H](NC(=O)[C@H](Cc1ccccc1)NC(=O)c1cnccn1)B1OC(C)(C)C(C)(c2ccc(C(=O)N3CCN(c4ccc(-n5c(O)nnc5-c5cc(C(C)C)c(O)cc5O)cc4)CC3)cc2)O1 (stereo partly drawn) [SDC-TRAP-0238, N-((2S)-1-(((1R)-1-(4-(4-(4-(4-(3-(2,4-dihydroxy-5-isopropylphenyl)-5-hydroxy-4H-1,2,4-triazol-4-yl)phenyl)piperazine-1-carbonyl)phenyl)-4,5,5-trimethyl-1,3,2-dioxaborolan-2-yl)-3-methylbutyl)amino)-1-oxo-3-phenylpropan-2-yl)pyrazine-2-carboxamide]

IC50 [3]: 0.036 µM | % Remaining (1 h) [2]: 8.93%
SMILES: CCNC(=O)c1nnc(-c2cc(C(C)C)c(O)cc2O)n1-c1ccc(Oc2ccc(C(=O)N3CCC4(CC3)OB([C@H](CC(C)C)NC(=O)[C@H](Cc3ccccc3)NC(=O)c3cnccn3)OC4(C)C)cc2)cc1 [SDC-TRAP-0249, N—((S)-1-(((R)-1-(8-(4-(4-(3-(2,4-dihydroxy-5-isopropylphenyl)-5-(ethylcarbamoyl)-4H-1,2,4-triazol-4-yl)phenoxy)benzoyl)-4,4-dimethyl-1,3-dioxa-8-aza-2-boraspiro[4.5]decan-2-yl)-3-methylbutyl)amino)-1-oxo-3-phenylpropan-2-yl)pyrazine-2-carboxamide]

IC50 [3]: 2.12 µM | % Remaining (1 h) [2]: 27.0%
SMILES: CC(C)C[C@H](NC(=O)[C@H](Cc1ccccc1)NC(=O)c1cnccn1)B1OC(C)(C)C2(CCN(C(=O)CCn3ccc4cc(-n5c(O)nnc5-c5cc(C(C)C)c(O)cc5O)ccc43)CC2)O1 [SDC-TRAP-0250, N—((S)-1-(((R)-1-(8-(3-(5-(3-(2,4-dihydroxy-5-isopropylphenyl)-5-hydroxy-4H-1,2,4-triazol-4-yl)-1H-indol-1-yl)propanoyl)-4,4-dimethyl-1,3-dioxa-8-aza-2-boraspiro[4.5]decan-2-yl)-3-methylbutyl)amino)-1-oxo-3-phenylpropan-2-yl)pyrazine-2-carboxamide]

IC50 [3]: 0.407 µM
SMILES: CC(C)C[C@H](NC(=O)[C@H](Cc1ccccc1)NC(=O)c1cnccn1)B1OC(C)(C)C(C)(c2ccc(C(=O)N3CCC(COc4ccc(-n5c(O)nnc5-c5cc(C(C)C)c(O)cc5O)cc4)CC3)cc2)O1 (stereo partly drawn) [SDC-TRAP-0242, N-((2S)-1-(((1R)-1-(4-(4-(4-((4-(3-(2,4-dihydroxy-5-isopropylphenyl)-5-hydroxy-4H-1,2,4-triazol-4-yl)phenoxy)methyl)piperidine-1-carbonyl)phenyl)-4,5,5-trimethyl-1,3,2-dioxaborolan-2-yl)-3-methylbutyl)amino)-1-oxo-3-phenylpropan-2-yl)pyrazine-2-carboxamide]
